Experimental data from article PMC12797721 (Cell Communication and Signaling : CCS, 2025).

Legend:
[1] = target: C18ORF32 (Homo sapiens, UniProt Q8TCD1, F19A/Y16A/Y23A/Y25A); test: isothermal titration calorimetry; assay type: binding
[2] = target: C18ORF32 (Homo sapiens, UniProt Q8TCD1); test: isothermal titration calorimetry; assay type: binding
Sequence of C18ORF32 (Homo sapiens, UniProt Q8TCD1) (Q8TCD1 whole entry): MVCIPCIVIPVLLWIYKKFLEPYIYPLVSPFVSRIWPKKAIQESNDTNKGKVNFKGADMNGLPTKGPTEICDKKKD

Sequence of C18ORF32 (Homo sapiens, UniProt Q8TCD1, F19A/Y16A/Y23A/Y25A) (Q8TCD1 whole entry Y16A/F19A/Y23A/Y25A): as the sequence (Q8TCD1 whole entry) above, with Y16A, F19A, Y23A, Y25A counted along it

Kd [1]: 557 µM | Kd [2]: 0.0678 µM
Structure (SMILES): C[N+](C)(C)CCO [choline]
